What was measured:
[1] = target: T1, melibiose permease (MelB) (Salmonella typhimurium, UniProt P30878); test: MelB solubilization and thermostability (SDS-PAGE, immunoblot); conditions: 1.5 wt %; for MelB extraction from membranes at 0° C.: 10 min or 90 min
T1 construct: made in house; host or cells: E. coli DW2-R (ΔmelB, ΔlacZY), vector pK35ΔAHB/WT MelB/CH6
Experimental: DDM (1.5 wt %) or GDN (1.5 wt %) was used to extract MelB from S. typhimurium membranes at 0° C. for 10 min or 90 min and then aggregated material was removed via ultracentrifugation. The amount of MelB in solution was determined by SDS-PAGE with immunoblot detection (FIG. 10).
The effect of DDM and GDN on MelB thermostability was assessed by solubilizing the protein at the elevated temperatures for 90 min. […] Presumably MelB denatured and aggregated at the higher temperature in the presence of DDM. […] When MelB expressed in E. coli was used, similar results were obtained (FIG. 11).
The protocol reported by Chae and coworkers (Nat. Methods 2010, 7, 1003-1008) was used to evaluate MelB stability with DDM and GDN.
The reported protocol3 was used to evaluate MelB stability with DDM and GDN. Vector pK35ΔAHB/WT MelB/CH6 encoding the wild-type MelB with a 6-His tag at the C-terminus and E. coli DW2-R cells (ΔmelB and ΔlacZY) are used for the assay. Cells were harvested, resuspended in a buffer containing 20 mM Tris, pH 7.5, 200 mM NaCl and 10% glycerol. The harvested cells were subjected to French press and centrifugation at 20,000 g for 15 min. Subsequently, membranes were obtained via ultracentrifugation at 43,000 rpm for 3 hr in the Beckman rotor, Type 45 Ti rotor. A protein assay was carried out with a BCA kit (Thermo Scientific, Rockford, Ill.). For the measurement of solubilization efficiency, membrane samples containing MelB were incubated with a solubilization buffer (20 mM Tris, 200 mM NaCl, 10% glycerol, 20 mM melibiose, pH, 7.5) and 1.5 wt % DDM or GDN at 0° C. for 10 min. The final protein concentration was 10 mg/mL. For the MelB thermostability, the samples were incubated for 90 min at the four different temperatures (0, 45, 55, and 65° C.). After ultracentrifugation at 355,590 g in a Beckman Optima™ MAX Ultracentrifuge using a TLA-100 rotor for 45 min at 4° C., 10 μg protein before and after spin for each condition was analyzed by SDS-12% PAGE and immunoblotted with Penta-His-HRP antibody (Qiagen, Germantown, Md.).

[2] = tested on: R. capsulatus LHI-RC superassembly; test: R. capsulatus LHI-RC superassembly stability (A875/A680); parameters: species or system Rhodobacter capsulatus; conditions: CMC+0.04 wt %, RT, 875 nm/680 nm absorbance ratio
Experimental: Next a more challenging system, the photosynthetic superassembly from Rhodobacter capsulatus (Laible et al., Biochemistry 2003, 42, 1718-1730), was analyzed. This photosynthetic superassembly contains the light harvesting I (LHI) complex and the reaction center (RC) complex. The superassembly contains >30 protein molecules; integrity can be assessed based on the 875 nm/680 nm absorbance ratio (Chae et al., ChemBioChem 2008, 9, 1706-1709). The superassembly was extracted from the native membrane with 1.0 wt % DDM and purified with DDM at its CMC (0.009 wt %). […]
The stability of R. capsulatus superassembly was assessed according to the protocol described by Chae and coworkers (J. Am. Chem. Soc. 2010, 132, 16750-16752).
For the stability assay, DDM-solubilized material was transferred into a new microcentrifuge tube containing Ni-NTA resin (Qiagen, Inc.; Valencia, Calif.; pre-equilibrated and stored in an equal volume of buffer containing 10 mM Tris, pH 7.8, and 100 mM NaCl). After a 1 h incubation at 4° C. for binding, the resins were washed twice with 0.5 mL of binding buffer (a pH 7.8 Tris solution containing DDM at 1×CMC) and eluted three times with 0.20 mL elution buffer aliquots containing 1 M imidazole (otherwise, this buffer was identical to binding buffer; the pH of each solution was readjusted to pH=7.8). […]

T1 sequence (P30878 whole entry): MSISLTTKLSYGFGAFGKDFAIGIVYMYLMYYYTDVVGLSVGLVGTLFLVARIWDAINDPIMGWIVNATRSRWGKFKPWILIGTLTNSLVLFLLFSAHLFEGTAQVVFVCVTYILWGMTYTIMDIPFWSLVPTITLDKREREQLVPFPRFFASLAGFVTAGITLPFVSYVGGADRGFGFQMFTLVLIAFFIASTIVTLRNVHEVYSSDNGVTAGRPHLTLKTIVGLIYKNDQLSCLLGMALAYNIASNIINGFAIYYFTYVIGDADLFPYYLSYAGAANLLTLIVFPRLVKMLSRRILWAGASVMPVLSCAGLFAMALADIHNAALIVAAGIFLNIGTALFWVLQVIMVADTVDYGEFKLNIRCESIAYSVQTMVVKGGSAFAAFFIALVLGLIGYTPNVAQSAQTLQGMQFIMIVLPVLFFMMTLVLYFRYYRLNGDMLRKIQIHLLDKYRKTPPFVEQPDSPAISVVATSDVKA

In the case of CCCCCCCCCCCCO[C@@H]1O[C@H](CO)[C@@H](O[C@H]2O[C@H](CO)[C@@H](O)[C@H](O)[C@H]2O)[C@H](O)[C@H]1O [DDM, dodecyl-β-D-maltoside, reference compound], the “MelB extraction from membranes at 0° C.” value [1] is reported as “quantitatively extract”, the “Soluble MelB at 45° C.” value ([1]; 90 min, 45° C.) is reported as “high yield of soluble MelB” and the “Soluble MelB at 55° C.” value ([1]; 90 min) is reported as “no soluble protein was obtained”.

In the case of C[C@@H]1CC[C@@]2(OC1)O[C@H]1C[C@H]3[C@@H]4CC=C5C[C@@H](OCCC(CO[C@@H]6OC(CO)[C@@H](O[C@H]7OC(CO)[C@@H](O)C(O)C7O)C(O)C6O)CO[C@@H]6OC(CO)[C@@H](O[C@H]7OC(CO)[C@@H](O)C(O)C7O)C(O)C6O)CC[C@]5(C)[C@H]4CC[C@]3(C)[C@@H]1[C@@H]2C (some centres unmarked) [GDN, glyco-diosgenin], the “LHI-RC superassembly stability over 20 days relative to DDM or OG” value [2] is reported as “substantially more stable”, the “MelB extraction from membranes at 0° C.” value [1] is reported as “not quite as efficient in extraction” and the “Soluble MelB at 55° C.” value ([1]; 90 min) is reported as “large amounts of soluble protein”. The “Soluble MelB at 65° C.” value ([1]; 90 min, 65° C.) was “large amounts of soluble protein”.

For CO[C@@H]1CC[C@@]2(C)[C@H](CC[C@@H]3[C@@H]2CC[C@]2(C)[C@@H]([C@H](C)CCCOCC(C)(CO[C@@H]4OC(CO)C(O[C@@H]5OC(CO)[C@@H](O)[C@H](O)C5O)[C@@H](O)C4O)CO[C@@H]4OC(CO)[C@@H](O[C@H]5OC(CO)[C@@H](O)[C@H](O)C5O)[C@H](O)C4O)CC[C@@H]32)C1 (some centres unmarked) [GLC-2], the “LHI-RC superassembly stability over 20 days relative to DDM or OG” value [2] was “substantially more stable”.

— patent publication US9556217B2, “Amphiphilic compounds” (WISCONSIN ALUMNI RESEARCH FOUNDATION, priority 2012, dated 2017)
